Experimental findings from patent US9802982B2, “Peptide and uses thereof” (Tunghai University, priority 2014, dated 2017) are described below.

≈ marks a conversion by molar mass, not a printed value. Like-named read-outs stand apart in the source and are kept apart here. Where a SMILES comes first, the peptide text is derived from it. Where no end group is shown, it is not given here. [ ]: non-standard residue; d: D form. NMeW = CN[C@@H](Cc1c[nH]c2ccccc12)C(=O)O; NMeR = CN[C@@H](CCCNC(=N)N)C(=O)O

What all share (format): cell-based
In series [1] the test system is human red blood cells. Briefly: Hemolysis assay. The method, then:
1-3 mL human blood was centrifuged at 3000 rpm, 4° C. for 10 minutes. The supernatant was discarded. The remaining was washed with cold phosphate buffer saline (PBS) and centrifuged at 3000 rpm, 4° C. for 1 minute. The supernatant was discarded. The remaining red blood cells were washed and diluted as 2% red blood cell solution with cold PBS.
A mixture of 100 μL red blood cell solution and 100 μL PBS was served as a negative control. A mixture of 100 μL red blood cells solution and 100 μL 0.2% Triton X-100 was served as a positive control. The solution of peptide 1, peptide 2, peptide 3, peptide 5, and peptide 6 were respectively mixed with red blood cell solution with the same volume and incubated at 37° C. for 1 hour. After incubation, the mixture was centrifuged at 3000 rpm, 4° C. for 10 minutes. Each of the supernatant was collected to measure the absorbance at wavelength of 405 nm by an ELISA plate reader. The hemolysis of each peptide was calculated according to the following equation, wherein Abs represents the absorbance. [(Abspeptide−AbsPBS)/(AbsTriton X-100−AbsPBS)]×100

The test system of series [2] is Pseudomonas aeruginosa (ATCC27853). On the procedure:
(§1) Three bacteria strains, Escherichia coli (ATCC 25922), Staphylococcus aureus (ATCC25923), and Pseudomon asaeruginosa (ATCC27853) were brought from the Food Industry Research and Development Institute, Hsinchu, Taiwan.
(§2) Each of the strain (0.1-0.2 mL) was inoculated on an agar gel medium (Merck, Whitehouse, Station, N.J., USA) and isolated into single colony by streak plate method. Each of the strain was spread evenly by a sterile L-shaped glass rod and incubated overnight. After that, the single colony on each agar gel medium was transferred to liquid LB medium (Merck, Whitehouse, Station, N.J., USA) and incubated at 37° C. in an incubator.
(§3) Each bacteria strain from example 6 was incubated to its mid-log phase at 37° C. in 2 mL Lysogeny broth (LB) in an incubator, wherein the mid-log phase of Escherichia coli is 4 hours, the mid-log phase of Staphylococcus aureus is 6 hours, and the mid-log phase of Pseudomonas aeruginosa is 8 hours. According to 0.5 McFarland Standard, the number of bacteria in a broth is 1×10^8 CFU/mL when the OD595 is 0.08-0.09. […] And then, the number of bacteria in each broth was diluted from 1×10^8 CFU/mL to […]. Finally, each broth has bacterial number of 5×10^5 CFU/mL in Mueller Hinton broth (MHB).
(§4) 199 μL of each of the foresaid diluted broth was respectively placed into a 96 well plate, and 1 μL of each peptide from example 5 was added into each well to incubate at 37° C. in an incubator for 16 hours. The OD595 of the coculture of each broth and each peptide was measured by a microplate spectrophotometer. In addition, the bacterial broth without the peptide served as positive control (PC), and the free broth MHB culture medium served as negative control (NC). The minimum inhibitory concentration (MIC90) of each peptide against each bacteria was measured according to the following equation, wherein A is the absorbance. MIC90≦[(Apeptide−ANC)(APC−ANC)]

Series [3] has as its system Escherichia coli (ATCC 25922). The method, then:
as §1, §2, §3, §4

Series [4] concerns Staphylococcus aureus (ATCC25923). On the procedure: as §1, §2, §3, §4
Series [5] deals with Pseudomonas aeruginosa (ATCC27853). The method, then:
as §1, §2, §3, §4
(§5) In addition, to measure the minimum bactericidal concentration (MBC), 1 μL of each broth cocultured with the peptide was sprayed on a flat plate medium at 37° C. in an incubator for 24 hours. If the incubation result has no bacteria, the concentration of the reagent is MBC.
This is another data set of the same source.

Series [6] deals with Escherichia coli (ATCC 25922). On the procedure:
as §1, §2, §3, §4, §5
The source holds these as a separate data set.

In series [7] the test system is Staphylococcus aureus (ATCC25923). On the procedure: as §1, §2, §3, §4, §5
The source holds these as a separate data set.

Setting [8] is: 5×10^5 CFU/mL in MHB, 37° C., 16 hours, OD595.
Setting [9] is: coculture plated on flat plate medium, 37° C., 24 hours, no bacteria.

Consider `CC(C)C[C@H](NC(=O)[C@H](Cc1c[nH]c2ccccc12)NC(=O)[C@@H](N)CCCCN)C(=O)N[C@@H](CCCNC(=N)N)C(=O)N(C)[C@@H](CCCNC(=N)N)C(=O)N[C@H](C(=O)N[C@@H](Cc1c[nH]c2ccccc12)C(=O)N[C@@H](CCCNC(=N)N)C(=O)N[C@@H](Cc1c[nH]c2ccccc12)C(=O)N[C@@H](Cc1c[nH]c2ccccc12)C(=O)N[C@@H](CCCNC(=N)N)C(N)=O)C(C)C` [peptide 5, KWLRMeRVWRWWR] (H-KWLR[NMeR]VWRWWR-NH2), for which the “Hemolysis (%)” value in series [1] (red cells of human, 1 h) is 44.9%.
In the case of `CC(C)C[C@H](NC(=O)[C@H](CCCNC(=N)N)NC(=O)[C@@H](N)CCCCN)C(=O)N[C@@H](CCCNC(=N)N)C(=O)N[C@@H](CCCNC(=N)N)C(=O)N[C@H](C(=O)N(C)[C@@H](Cc1c[nH]c2ccccc12)C(=O)N[C@@H](CCCNC(=N)N)C(=O)N[C@@H](Cc1c[nH]c2ccccc12)C(=O)N[C@@H](Cc1c[nH]c2ccccc12)C(=O)N[C@@H](CCCNC(=N)N)C(N)=O)C(C)C` [peptide 4, KRLRRVMeWRWWR] (H-KRLRRV[NMeW]RWWR-NH2; N-terminus assumed), in series [2] (ATCC27853, 16 h), the “Minimum inhibitory concentration (MIC90) Pseudomonas aeruginosa” value turned out to be 20 µM (≈ 34.2 µg/mL). For the same compound, the “Minimum inhibitory concentration (MIC90) Escherichia coli” value in series [3] (ATCC 25922, 16 h) is 20 µM (≈ 34.2 µg/mL). Further, the “Minimum inhibitory concentration (MIC90) Staphylococcus aureus” value in series [4] (ATCC25923, 16 h) worked out at 10 µM (≈ 17.1 µg/mL). Besides, in series [5] (ATCC27853, 24 h), the “Minimum bactericidal concentration (MBC99.9) Pseudomonas aeruginosa” value came to 20 µM (≈ 34.2 µg/mL). Besides, the “Minimum bactericidal concentration (MBC99.9) Escherichia coli” value in series [6] (ATCC 25922, 24 h) turned out to be 20 µM (≈ 34.2 µg/mL). Also, the “Minimum bactericidal concentration (MBC99.9) Staphylococcus aureus” value in series [7] (ATCC25923, 24 h) turned out to be 10 µM (≈ 17.1 µg/mL).
As for “Triton X-100 [Positive control, reference compound]”, the “Hemolysis (%)” value in series [1] came to 100%.
“KWLRRPWRRWR-NH2 [peptide 2, KWLRRPWRRWR]”: the “Hemolysis, comparison in words” value in series [1] (comparison among the peptides of Table 4) is “the lowest”. In series [2] (setting [8]), the “Minimum inhibitory concentration (MIC90) Pseudomonas aeruginosa” value worked out at 5 µM. Further, the “Minimum inhibitory concentration (MIC90) Escherichia coli” value in series [3] (setting [8]) is 2.5 µM. Besides, the “Minimum inhibitory concentration (MIC90) Staphylococcus aureus” value in series [4] (setting [8]) was 2.5 µM. For the same compound, the “Minimum bactericidal concentration (MBC99.9) Pseudomonas aeruginosa” value in series [5] (setting [9]) came out at 20 µM. In addition, the “Minimum bactericidal concentration (MBC99.9) Escherichia coli” value in series [6] (setting [9]) turned out to be 10 µM. Besides, the “Minimum bactericidal concentration (MBC99.9) Staphylococcus aureus” value in series [7] (setting [9]) amounted to 5 µM.
Consider “KWLRRVWRWWR-NH2 [peptide 6, KWLRRVWRWWR]”, for which the “Hemolysis (%)” value in series [1] (red cells of human, 1 h) is reported as 70.7%. Moreover, in series [2] (ATCC27853, 16 h), the “Minimum inhibitory concentration (MIC90) Pseudomonas aeruginosa” value is 5 µM. Besides, the “Minimum inhibitory concentration (MIC90) Escherichia coli” value in series [3] (ATCC 25922, 16 h) was found to be 5 µM. In addition, the “Minimum inhibitory concentration (MIC90) Staphylococcus aureus” value in series [4] (ATCC25923, 16 h) turned out to be 5 µM. For the same compound, the “Minimum bactericidal concentration (MBC99.9) Pseudomonas aeruginosa” value in series [5] (ATCC27853, 24 h) was determined as 5 µM. For the same compound, the “Minimum bactericidal concentration (MBC99.9) Escherichia coli” value in series [6] (ATCC 25922, 24 h) is 5 µM. Also, the “Minimum bactericidal concentration (MBC99.9) Staphylococcus aureus” value in series [7] (ATCC25923, 24 h) was found to be 10 µM.
Turning to `CC(C)C[C@H](NC(=O)[C@H](Cc1c[nH]c2ccccc12)NC(=O)[C@@H](N)CCCCN)C(=O)N[C@@H](CCCNC(=N)N)C(=O)N[C@@H](CCCNC(=N)N)C(=O)N[C@H](C(=O)N(C)[C@@H](Cc1c[nH]c2ccccc12)C(=O)N[C@@H](CCCNC(=N)N)C(=O)N[C@@H](Cc1c[nH]c2ccccc12)C(=O)N[C@@H](Cc1c[nH]c2ccccc12)C(=O)N[C@@H](CCCNC(=N)N)C(N)=O)C(C)C` [peptide 1, KWLRRVMeWRWWR] (H-KWLRRV[NMeW]RWWR-NH2), the “Hemolysis, comparison in words” value in series [1] was “significantly lower than the peptide 5”. Besides, the “Hemolysis (%)” value in series [1] (red cells of human, 1 h) came to 20.1%. The “Minimum inhibitory concentration (MIC90) Pseudomonas aeruginosa” value in series [2] (ATCC27853, 16 h) amounted to 10 µM (≈ 17.4 µg/mL). Besides, in series [3] (ATCC 25922, 16 h), the “Minimum inhibitory concentration (MIC90) Escherichia coli” value was found to be 5 µM (≈ 8.71 µg/mL). For the same compound, the “Minimum inhibitory concentration (MIC90) Staphylococcus aureus” value in series [4] (ATCC25923, 16 h) was found to be 5 µM (≈ 8.71 µg/mL). Moreover, in series [5] (ATCC27853, 24 h), the “Minimum bactericidal concentration (MBC99.9) Pseudomonas aeruginosa” value is 10 µM (≈ 17.4 µg/mL). Also, the “Minimum bactericidal concentration (MBC99.9) Escherichia coli” value in series [6] (ATCC 25922, 24 h) worked out at 20 µM (≈ 34.8 µg/mL). For the same compound, the “Minimum bactericidal concentration (MBC99.9) Staphylococcus aureus” value in series [7] (ATCC25923, 24 h) was determined as 40 µM (≈ 69.6 µg/mL).
Take “KWLRWVRRRWW-NH2 [peptide 3, KWLRWVRRRWW]”: the “Hemolysis, comparison in words” value in series [1] is “the lowest”. Moreover, the “Hemolysis (%)” value in series [1] (red cells of human, 1 h) stood at 3.4%. The “Minimum inhibitory concentration (MIC90) Pseudomonas aeruginosa” value in series [2] (ATCC27853, 16 h) came to 5 µM. Further, in series [3] (ATCC 25922, 16 h), the “Minimum inhibitory concentration (MIC90) Escherichia coli” value was 2.5 µM. Besides, in series [4] (ATCC25923, 16 h), the “Minimum inhibitory concentration (MIC90) Staphylococcus aureus” value came to 2.5 µM. The “Minimum bactericidal concentration (MBC99.9) Pseudomonas aeruginosa” value in series [5] (ATCC27853, 24 h) was 20 µM. The “Minimum bactericidal concentration (MBC99.9) Escherichia coli” value in series [6] (ATCC 25922, 24 h) is 10 µM. Further, in series [7] (ATCC25923, 24 h), the “Minimum bactericidal concentration (MBC99.9) Staphylococcus aureus” value came out at 5 µM.
